In assay [1] the target is T1, human Cereblon WT GST-tagged protein (CRBN) (Homo sapiens, UniProt Q96SW2).
T1 construct: purchased CISBIO 64BDCRBNPEH
In words: CRBN binding by HTRF (Cereblon binding kit). Particulars: for inhibition at 0.5 µM: read-out: Inhibition Rate at 0.5 μM (%); for inhibition at 2 µM: read-out: Inhibition Rate at 2 μM (%). The procedure:
The CEREBLON BINDING kits (specification: 10,000 tests; product number: Catalog #64BDCRBNPEH; CISBIO company) was used to determine the CRBN binding ability of the compounds to be tested through a HTRF method (homogeneous time-resolved fluorescence). The specific methods are as follows: • 1. According to the instructions of the CEREBLON BINDING KITS, serial dilutions were performed for the test compounds of the present disclosure (including the compounds in Table 1, Table 2, and Examples 1-468) and for lenalidomide. Specifically, diluent #9 (1×) solution was used as the diluent, and multiple concentration gradients were set. The dilution operation can be performed according to one of the following two methods: • (1) The first dilution method: The test compounds of the present disclosure (including the compounds in Table 1, Table 2, and Examples 1-468) were subjected to 5-fold serial dilutions starting from a highest concentration of 40 μM, resulting in a total of 7 concentrations from high to low (40, 8, 1.6, 0.32, 0.064, 0.0128, 0.00256 μM). Subsequently, the diluted test compounds and corresponding detection reagents were added to each well of a 96-well plate, resulting in final test compound concentrations of 10, 2, 0.4, 0.08, 0.016, 0.0032, and 0.00064 μM, respectively. • (2) As an alternative, a second dilution method can be used: The test compounds of the present disclosure (including the compounds in Table 1, Table 2, and Examples 1-468) were subjected to 4-fold gradient dilutions starting from a highest concentration of 8 μM, resulting in 2 concentrations (8 μM, 2 μM). Into the 96-well plate, the diluted test compounds and corresponding detection reagents were added, resulting in final test compound concentrations of 2 μM and 0.5 μM, respectively. The experimental procedure is described below using the diluted 8 μM test compound and lenalidomide solutions as examples. • 2. 2.5 μL of the above 8 μM of the tested compounds and lenalidomide solution, as well as the same volume of diluent #9 (1×) solution (solvent control group, Std0) were added to each well of a 96-well plate, respectively. Then, 2.5 μL of human Cereblon WT GST-tagged protein solution was added to each well. Finally, 5 μL of the thoroughly mixed Thalidomide-Re reagent and GST Eu antibody working solution were added to each of the aforementioned wells. The final concentration of the tested compounds and lenalidomide in each well was 2 μM. • 3. The blank control wells were sequentially added with 2.5 μL of diluent #9 (1×) solution, 2.5 μL of PROTAC binding buffer, and 5 μL of thoroughly mixed Thalidomide-Re reagent and GST Eu antibody working solution. • 4. After sealing and incubating the solutions in the aforementioned wells at room temperature for 3 hours, the absorbance values at emission wavelengths of 620 nm and 665 nm were detected by the HTRF method using a Spark microplate reader (V3.1 SP1).
The corresponding CRBN binding inhibition rate was calculated using the following method:
Rcompound=OD 665 nmcompound/OD 620 nmcompound−OD 665 nmcontrol/OD 620 nmcontrol
RStd0=OD 665 nmStd0/OD 620 nmStd0−OD 665 nmcontrol/OD 620 nmcontrol inhibition rate (%)=(1−Rcompound/RStd0)*100
Note: OD 665 nmcompound is the absorbance value of each well of the compounds to be tested of the present disclosure at an emission wavelength of 665 nm. OD 620 nmcompound is the absorbance value of each well of the compounds to be tested of the present disclosure at an emission wavelength of 620 nm. OD 665 nmcontrol is the absorbance value of the blank control well at an emission wavelength of 665 nm. OD 620 nmcontrol is the absorbance value of the blank control well at an emission wavelength of 620 nm. OD 665 nmStd0 is the absorbance value of the solvent control well at an emission wavelength of 665 nm. OD 620 nmStd0 is the absorbance value of the solvent control well at an emission wavelength of 620 nm.

In a further assay the target is T2, IRAK4 (Homo sapiens, UniProt Q9NWZ3).
T2 construct: expression of target proteins in cells; endogenous in cells
T2 sequence (Q9NWZ3 1-460): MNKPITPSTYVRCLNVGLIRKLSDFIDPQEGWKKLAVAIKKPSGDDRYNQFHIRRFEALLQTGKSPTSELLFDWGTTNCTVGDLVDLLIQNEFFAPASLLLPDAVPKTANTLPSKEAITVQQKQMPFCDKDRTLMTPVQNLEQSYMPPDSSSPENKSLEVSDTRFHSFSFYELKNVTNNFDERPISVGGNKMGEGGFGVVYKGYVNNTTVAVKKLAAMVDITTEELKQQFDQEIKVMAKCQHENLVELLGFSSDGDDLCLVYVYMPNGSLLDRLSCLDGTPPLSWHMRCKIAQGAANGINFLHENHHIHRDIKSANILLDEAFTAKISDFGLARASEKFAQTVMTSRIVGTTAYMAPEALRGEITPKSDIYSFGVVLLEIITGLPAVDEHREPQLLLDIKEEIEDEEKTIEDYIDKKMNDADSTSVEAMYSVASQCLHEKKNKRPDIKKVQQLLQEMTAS
In words: Western blot degradation of IRAK4. Type of assay: cell-based. Particulars: hPBMC Cell; 24 hours. In outline:
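Compound-treated cells harvested; lysates denatured 5 min at 95 °C, run on SDS-PAGE, blotted to NC membrane, blocked 1 h RT, probed with antibodies. Densitometry vs DMSO → DC50; target normalised to internal control → % remaining, degradation = 1 − remaining.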
On the technique in general: Immunoblotting shows a protein as a band on a membrane.

For assay [2], the system named is Human Multiple myeloma cell line (MM.1S). Nature of the assay: Inhibition of MM.1S cell proliferation (CellTiter luminescent viability). The class given is cell-based. Particulars: Homo sapiens, MM1.S, Table IG1, FAK inhibitor-based, 96 hours. The procedure, abridged:
(§1)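 IC50 is fitted from luminescent viability (CellTiter-Meiluncell) curves. Nine-point, 5-fold dilution series (top stock 2000 μM) are added at 0.5 μL per 100 μL medium to cells plated the day before, with growth at 37 °C and 5% CO2.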

Assay [3] relates to Human myeloid monocytic leukemia cell line (MV-4-11). Nature of the assay: Inhibition of MV-4-11 cell proliferation (CellTiter luminescent viability). The class given is cell-based. Particulars: Homo sapiens, MV4-11, Table IG2, FAK inhibitor-based, 96 hours. The procedure, abridged: as §1

T1 sequence (Q96SW2 whole entry): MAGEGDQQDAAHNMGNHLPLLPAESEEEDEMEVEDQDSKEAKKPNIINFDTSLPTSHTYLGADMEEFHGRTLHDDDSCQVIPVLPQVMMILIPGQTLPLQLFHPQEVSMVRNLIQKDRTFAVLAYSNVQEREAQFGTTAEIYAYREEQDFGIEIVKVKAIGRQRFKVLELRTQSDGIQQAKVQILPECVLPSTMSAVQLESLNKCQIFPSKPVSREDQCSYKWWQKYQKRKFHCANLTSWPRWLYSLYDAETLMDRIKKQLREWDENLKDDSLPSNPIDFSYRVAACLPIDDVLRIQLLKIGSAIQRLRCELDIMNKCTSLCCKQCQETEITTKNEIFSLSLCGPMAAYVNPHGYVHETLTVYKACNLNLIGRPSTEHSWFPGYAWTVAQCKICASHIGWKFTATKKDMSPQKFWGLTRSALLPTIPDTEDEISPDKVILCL

Broadly, the inhibition is the percentage by which the read-out fell short of the control. `O=C1CCN(N2C(=O)c3ccc(N4CC5CCC4CN5CC4CCN(c5ccn6c(n5)nc5ccccc56)CC4)cc3C2=O)C(=O)N1` (centres unmarked) [GT-08828, 5-(5-((1-(benzo[4,5]imidazo[1,2-a]pyrimidin-2-yl)piperidin-4-yl)methyl)-2,5-diazabicyclo[2.2.2]octan-2-yl)-2-(2,4-dioxotetrahydropyrimidin-1(2H)-yl)isoindoline-1,3-dione]: in assay [1], the inhibition at 0.5 µM lay within 20 to 30% and the inhibition at 2 µM lay in the range of 53 to 60%.
On to `O=C1CCN(N2C(=O)c3ccc(N4CC5CCC4CN5C[C@H]4CC[C@H](n5cc(NC(=O)c6cnn7ccc(N8C[C@H]9C[C@@H]8CO9)nc67)c(C(F)F)n5)CC4)cc3C2=O)C(=O)N1` [GT-05833, 5-((1R,4R)-2-oxa-5-azabicyclo[2.2.1]heptan-5-yl)-N-(3-(difluoromethyl)-1-((1r,4R)-4-((5-(2-(2,4-dioxotetrahydropyrimidin-1(2H)-yl)-1,3-dioxoisoindolin-5-yl)-2,5-diazabicyclo[2.2.2]octan-2-yl)methyl)cyclohexyl)-1H-pyrazol-4-yl)pyrazolo[1,5-a]pyrimidine-3-carboxamide], for which, on IRAK4, the “Degradation of substrate protein IRAK4 (substrate protein remaining %)” value is reported as “A (0%≤substrate protein remaining %≤80%)”. Further, in assay [1], the inhibition at 0.5 µM was in the range of 40 to 53% and the inhibition at 2 µM was 60 to 80%.
In the case of `CNC(=O)c1ccccc1Nc1cc(Nc2ccc(N3CCN(Cc4ccc5c(c4)CN(N4CCC(=O)NC4=O)C5=O)CC3)cc2OC)ncc1C(F)(F)F` [GT-07660, 2-((2-((4-(4-((2-(2,4-dioxotetrahydropyrimidin-1(2H)-yl)-1-oxoisoindolin-5-yl)methyl)piperazin-1-yl)-2-methoxyphenyl)amino)-5-(trifluoromethyl)pyridin-4-yl)amino)-N-methylbenzamide], the inhibition at 0.01 µM was in the range of 15 to 20% in assay [2] (10 nM, read-out: Inhibition Rate at 10 nM (%)) and 50 to 60% in assay [3] (MV-4-11, 10 nM, read-out: Inhibition Rate at 10 nM (%)). The inhibition at 0.5 µM in assay [2] (500 nM, read-out: Inhibition Rate at 500 nM (%)) was 60 to 80%; in assay [1] it was 30 to 40%; in assay [3] (MV-4-11, 500 nM, read-out: Inhibition Rate at 500 nM (%)), 80 to 100%. Besides, in assay [1], the inhibition at 2 µM was 60 to 80%.
With `Cc1cc(-c2ccc3c4cnccc4n(C)c3c2)cnc1N1CCN(Cc2ccc3c(c2)CN(N2CCC(=O)NC2=O)C3=O)CC1` [GT-08540, 1-(5-((4-(3-methyl-5-(5-methyl-5H-pyrido[4,3-b]indol-7-yl)pyridin-2-yl)piperazin-1-yl)methyl)-1-oxoisoindolin-2-yl)dihydropyrimidine-2,4 (1H,3H)-dione], in assay [1], the inhibition at 0.5 µM lay in the range of 10 to 20% and the inhibition at 2 µM lay in the range of 53 to 60%.
For `Cn1ncc(Cl)c1-c1cc(C(=O)N[C@H](CNCC2CCN(c3cccc4c3C(=O)N(N3CCC(=O)NC3=O)C4=O)CC2)Cc2cccc(F)c2)sc1Cl` [GT-08587, (S)-5-chloro-4-(4-chloro-1-methyl-1H-pyrazol-5-yl)-N-(1-(((1-(2-(2,4-dioxotetrahydropyrimidin-1(2H)-yl)-1,3-dioxoisoindolin-4-yl)piperidin-4-yl)methyl)amino)-3-(3-fluorophenyl)propan-2-yl)thiophene-2-carboxamide] the same measures were 10 to 20% and 53 to 60%.
On the same counts, the results for `O=C1CCN(N2Cc3cc(CN4CCN(c5ccn6c(n5)nc5ccccc56)CC4)ccc3C2=O)C(=O)N1` [GT-08565, 1-(5-((4-(benzo[4,5]imidazo[1,2-a]pyrimidin-2-yl)piperazin-1-yl)methyl)-1-oxoisoindolin-2-yl)dihydropyrimidine-2,4 (1H,3H)-dione] are 10 to 20% and 60 to 80%.

These data come from patent US20260364184A1, “COMPOUND BASED ON OXOISOINDOLINYL-SUBSTITUTED TETRAHYDROPYRIMIDINE-DIONE AND USE THEREOF” (GLUETACS THERAPEUTICS (SHANGHAI) CO., LTD., priority 2023, published 2026).
